Test results as given in patent US20260250290A1 (BRISTOL-MYERS SQUIBB COMPANY, priority 2023, published 2026).
Structures can show the parent of a compound that is named as a salt.

target: T1, full length SGK1 (Homo sapiens, UniProt O00141); assay: SGK1 inhibition Assay A (Caliper LabChip electrophoretic separation of fluorescent peptide substrate and phosphorylated product); assay type: biochemical; conditions: Assay A; 20 μM ATP, 40 min incubation; read-out: SGK1 IC50
T1 construct: 125 μM full length SGK1 (Life Technologies Part #PR7358A); purchased Life Technologies PR7358A
T1 sequence (O00141 1-431): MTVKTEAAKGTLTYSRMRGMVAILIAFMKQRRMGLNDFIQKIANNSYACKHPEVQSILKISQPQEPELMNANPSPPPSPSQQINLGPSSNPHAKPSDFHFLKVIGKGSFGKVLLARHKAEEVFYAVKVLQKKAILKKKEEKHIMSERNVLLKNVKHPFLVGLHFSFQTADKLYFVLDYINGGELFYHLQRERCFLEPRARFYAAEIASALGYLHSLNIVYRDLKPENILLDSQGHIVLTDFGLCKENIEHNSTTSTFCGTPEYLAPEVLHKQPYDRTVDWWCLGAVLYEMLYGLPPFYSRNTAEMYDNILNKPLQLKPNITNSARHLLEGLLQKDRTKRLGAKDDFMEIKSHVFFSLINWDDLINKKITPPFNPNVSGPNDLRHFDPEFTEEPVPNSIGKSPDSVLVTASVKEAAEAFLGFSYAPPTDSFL

IC50 [nM]	Compound
73	CS(=O)(=O)c1ccc(-c2cc(N3CCCC(NC(=O)c4ccc(Cl)cc4)C3)c3c(N)ncnn23)cc1 (stereo not shown) [Example 5, N-(1-(4-amino-7-(4-(methylsulfonyl)phenyl)pyrrolo[2,1-f][1,2,4]triazin-5-yl)piperidin-3-yl)-4-chlorobenzamide, TFA]
120	Nc1ncnn2c(-c3cncnc3)cc(N3CCC[C@@H](NC(=O)c4sc(Cl)cc4OCC(=O)N4CCCC4)C3)c12 [Example 419, (R)-N-(1-(4-amino-7-(pyrimidin-5-yl)pyrrolo[2,1-f][1,2,4]triazin-5-yl)piperidin-3-yl)-5-chloro-3-(2-oxo-2-(pyrrolidin-1-yl)ethoxy) thiophene-2-carboxamide]
728	CC(C)(O)c1ncc(-c2cc(N3CCC[C@@H](NC(=O)c4ccc(Cl)s4)C3)c3c(N)ncnn23)cn1 [Example 533, (R)-N-(1-(4-amino-7-(2-(2-hydroxypropan-2-yl)pyrimidin-5-yl)pyrrolo[2,1-f][1,2,4]triazin-5-yl)piperidin-3-yl)-5-chlorothiophene-2-carboxamide]
477	COC(=O)N1CC=C(c2cc(N3CCC[C@@H](NC(=O)c4sc5ccc(C#N)cc5c4OC4CCN(C(=O)OC(C)(C)C)CC4)C3)c3c(N)ncnn23)C1 [Example 678, tert-butyl (R)-4-((2-((1-(4-amino-7-(1-(methoxycarbonyl)-2,5-dihydro-1H-pyrrol-3-yl)pyrrolo[2,1-f][1,2,4]triazin-5-yl)piperidin-3-yl)carbamoyl)-5-cyanobenzo[b]thiophen-3-yl)oxy)piperidine-1-carboxylate]
46	CC(=O)N1CC=C(c2cc(N3CCC[C@@H](NC(=O)c4cccc(NC5CC(=O)N(C)C5)n4)C3)c3c(N)ncnn23)C1 (stereo partly drawn) [Example 768, N-((R)-1-(7-(1-acetyl-2,5-dihydro-1H-pyrrol-3-yl)-4-aminopyrrolo[2,1-f][1,2,4]triazin-5-yl)piperidin-3-yl)-6-((1-methyl-5-oxopyrrolidin-3-yl)amino)picolinamide]
5	COC(=O)N1CC=C(c2cc(N3CCC[C@@H](NC(=O)c4sc(C(F)F)cc4OC4CCN(C(C)=O)CC4)C3)c3c(N)ncnn23)C1 [Example 411, methyl (R)-3-(5-(3-(3-((1-acetylpiperidin-4-yl)oxy)-5-(difluoromethyl)thiophene-2-carboxamido)piperidin-1-yl)-4-aminopyrrolo[2,1-f][1,2,4]triazin-7-yl)-2,5-dihydro-1H-pyrrole-1-carboxylate]
23	CC(=O)N1CC=C(c2cc(N3CCC[C@@H](NC(=O)c4cccc(N[C@@H]5CCN(C)C5)n4)C3)c3c(N)ncnn23)C1 [Example 760, N—((R)-1-(7-(1-acetyl-2,5-dihydro-1H-pyrrol-3-yl)-4-aminopyrrolo[2,1-f][1,2,4]triazin-5-yl)piperidin-3-yl)-6-(((R)-1-methylpyrrolidin-3-yl)amino)picolinamide]
26	CCc1cccc(C(=O)N[C@@H]2CCCN(c3cc(-c4ccc(S(C)(=O)=O)cc4)n4ncnc(N)c34)C2)c1 [Example 79, (R)-N-(1-(4-amino-7-(4-(methylsulfonyl)phenyl)pyrrolo[2,1-f][1,2,4]triazin-5-yl)piperidin-3-yl)-3-ethylbenzamide, TFA]
467	CC(C)(C)OC(=O)CCn1cc(-c2cc(N3CCC[C@@H](NC(=O)c4ccc(Cl)s4)C3)c3c(N)ncnn23)nn1 [Example 863, tert-butyl (R)-3-(4-(4-amino-5-(3-(5-chlorothiophene-2-carboxamido)piperidin-1-yl)pyrrolo[2,1-f][1,2,4]triazin-7-yl)-1H-1,2,3-triazol-1-yl)propanoate]

Compound	IC50 [nM]
methyl 3-(4-amino-5-((3R)-3-(5-chloro-3-((2-methylpiperidin-4-yl)oxy)thiophene-2-carboxamido)piperidin-1-yl)pyrrolo[2,1-f][1,2,4]triazin-7-yl)-2,5-dihydro-1H-pyrrole-1-carboxylate [Example 621]	6
